# Data reported in ChEMBL document CHEMBL5532658 (Eur J Med Chem, 2024).
# The source made the active and inactive calls. The rule behind the calls is not given here.
# What was measured:
# MDA-MB-453 [1] = assay: Downregulation of Rb protein phosphorylation at Thr826 in human MDA-MB-453 cells incubated for 24 hrs by Western blot analysis; format: functional, cell-based; details: dose 37-333 nM
# MDA-MB-231 [2] = assay: Downregulation of Rb protein phosphorylation at Thr826 in human MDA-MB-231 cells incubated for 24 hrs by Western blot analysis; format: functional, cell-based; details: dose 37-333 nM
# MDA-MB-231 [3] = assay: Inhibition of RNA polymerase 2 C-terminal domain phosphorylation at Ser5 in heptad repeat in human MDA-MB-231 cells at 37 to 333 nM incubated for 24 hrs by Western blotting analysis; format: cell-based; details: dose 37-333 nM
# [4] = Half life in CD1 mouse at 1 mg/kg, iv measured upto 24 hrs by LC-MS/MS analysis; format: ADME, organism-based; details: in vivo
# [5] = Metabolic stability in mouse liver microsomes assessed as half-life; format: ADME, Microsome
# MDA-MB-231 [6] = assay: Downregulation of Rb protein phosphorylation at Ser811 in human MDA-MB-231 cells incubated for 24 hrs by Western blot analysis; format: functional, cell-based; details: dose 37-333 nM
# [7] = Half life in CD1 mouse at 10 mg/kg, po measured upto 24 hrs by LC-MS/MS analysis; format: ADME, organism-based; details: in vivo
# [8] = Volume of distribution at steady state in CD1 mouse at 1 mg/kg, iv measured upto 24 hrs by LC-MS/MS analysis; format: ADME, organism-based; details: in vivo, read-out: Vdss
# MDA-MB-453 [9] = assay: Induction of cell cycle arrest in human MDA-MB-453 cells assessed as G0/G1 phase arrest at 12.3 to 1000 nM incubated for 24 hrs by PI staining based flow cytometry analysis; format: functional; details: dose 12.3-1000 nM
# MDA-MB-453 [10] = assay: Downregulation of Rb protein phosphorylation at Ser780 in human MDA-MB-453 cells incubated for 24 hrs by Western blot analysis; format: functional, cell-based; details: dose 37-333 nM
# [11] = biological target: Cyclin-dependent kinase 7 (Homo sapiens) (UniProt P50613); assay: Inhibition of CDK7 in human MDA-MB-453 cells assessed as decrease in Thr160 phosphorylation of CDK2 at 37 to 333 nM incubated for 24 hrs by Western blot substrate; format: cell-based; details: dose 37-333 nM
# [12] = Clearance in CD1 mouse at 1 mg/kg, iv measured upto 24 hrs by LC-MS/MS analysis; format: ADME, organism-based; details: in vivo
# [13] = biological target: T1, Cyclin-dependent kinase-like 5 (Homo sapiens) (UniProt O76039); assay: Inhibition of CDKL5 (unknown origin) at 1 uM by discoverX kinomescan assay
# T1 sequence (whole entry): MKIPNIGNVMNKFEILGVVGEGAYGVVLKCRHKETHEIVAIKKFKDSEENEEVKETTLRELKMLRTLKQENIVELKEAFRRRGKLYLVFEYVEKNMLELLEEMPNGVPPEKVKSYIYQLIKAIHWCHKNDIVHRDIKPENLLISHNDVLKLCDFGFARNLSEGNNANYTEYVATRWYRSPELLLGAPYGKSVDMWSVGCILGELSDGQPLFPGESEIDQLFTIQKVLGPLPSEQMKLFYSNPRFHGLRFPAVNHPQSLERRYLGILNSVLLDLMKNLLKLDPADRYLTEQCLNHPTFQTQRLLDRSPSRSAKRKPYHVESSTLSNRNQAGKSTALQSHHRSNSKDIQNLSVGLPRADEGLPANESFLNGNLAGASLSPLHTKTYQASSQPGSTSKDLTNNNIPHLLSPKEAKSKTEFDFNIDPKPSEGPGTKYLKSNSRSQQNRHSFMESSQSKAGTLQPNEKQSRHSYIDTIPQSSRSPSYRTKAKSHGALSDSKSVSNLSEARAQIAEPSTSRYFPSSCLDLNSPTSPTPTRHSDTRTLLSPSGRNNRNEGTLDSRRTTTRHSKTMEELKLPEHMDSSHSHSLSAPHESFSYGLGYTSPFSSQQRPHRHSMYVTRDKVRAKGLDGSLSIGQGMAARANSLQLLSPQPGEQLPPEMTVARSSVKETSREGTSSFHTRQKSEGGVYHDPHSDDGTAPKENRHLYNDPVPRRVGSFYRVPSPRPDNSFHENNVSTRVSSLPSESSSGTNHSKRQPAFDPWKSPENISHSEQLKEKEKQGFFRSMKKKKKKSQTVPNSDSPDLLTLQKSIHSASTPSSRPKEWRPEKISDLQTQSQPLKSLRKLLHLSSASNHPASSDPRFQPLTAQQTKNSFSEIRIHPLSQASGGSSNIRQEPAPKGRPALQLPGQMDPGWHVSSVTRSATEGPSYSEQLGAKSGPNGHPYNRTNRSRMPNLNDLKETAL
# [14] = Metabolic stability in human liver microsomes assessed as half-life; format: ADME, Microsome
# MDA-MB-231 [15] = assay: Antitumor activity against human MDA-MB-231 cells xenografted in Balb/c mouse assessed as tumor regression at 5 to 10 mg/kg, po administered once daily and measured at day 15; format: functional, organism-based; details: dose 5-10 mg/kg
# [16] = biological target: Cyclin-dependent kinase 13 (Homo sapiens) (UniProt Q14004); assay: Inhibition of CDK13 (unknown origin) at 1 uM by discoverX kinomescan assay
# MDA-MB-231 [17] = assay: Downregulation of Rb protein phosphorylation at Ser807 in human MDA-MB-231 cells incubated for 24 hrs by Western blot analysis; format: functional, cell-based; details: dose 37-333 nM
# MDA-MB-231 [18] = assay: Induction of cell cycle arrest in human MDA-MB-231 cells assessed as G0/G1 phase arrest at 12.3 to 1000 nM incubated for 24 hrs by PI staining based flow cytometry analysis; format: functional; details: dose 12.3-1000 nM
# [19] = biological target: Cyclin-dependent kinase 16 (Homo sapiens) (UniProt Q00536); assay: Inhibition of CDK16 (unknown origin) at 1 uM by discoverX kinomescan assay
# MDA-MB-231 [20] = assay: Downregulation of Rb protein phosphorylation at Thr821 in human MDA-MB-231 cells incubated for 24 hrs by Western blot analysis; format: functional, cell-based; details: dose 37-333 nM
# MDA-MB-453 [21] = assay: Downregulation of Rb protein phosphorylation at Ser811 in human MDA-MB-453 cells incubated for 24 hrs by Western blot analysis; format: functional, cell-based; details: dose 37-333 nM
# MDA-MB-453 [22] = assay: Antiproliferative activity against human MDA-MB-453 cells incubated for 120 hrs by CCK-8 assay; format: functional, cell-based; details: MDA-MB-453, 120 h
# [23] = biological target: Cyclin-dependent kinase 17 (Homo sapiens) (UniProt Q00537); assay: Inhibition of CDK17 (unknown origin) at 1 uM by discoverX kinomescan assay
# [24] = Oral bioavailability in CD1 mouse at 10 mg/kg measured upto 24 hrs by LC-MS/MS analysis; format: ADME, organism-based; details: in vivo
# [25] = AUC(0 to t) in CD1 mouse at 1 mg/kg, iv measured upto 24 hrs by LC-MS/MS analysis; format: ADME, organism-based; details: in vivo
# MDA-MB-231 [26] = assay: Downregulation of Rb protein phosphorylation at Ser780 in human MDA-MB-231 cells incubated for 24 hrs by Western blot analysis; format: functional, cell-based; details: dose 37-333 nM
# Chain of Cyclin-dependent kinase 16 (Homo sapiens) (Q00536 whole entry): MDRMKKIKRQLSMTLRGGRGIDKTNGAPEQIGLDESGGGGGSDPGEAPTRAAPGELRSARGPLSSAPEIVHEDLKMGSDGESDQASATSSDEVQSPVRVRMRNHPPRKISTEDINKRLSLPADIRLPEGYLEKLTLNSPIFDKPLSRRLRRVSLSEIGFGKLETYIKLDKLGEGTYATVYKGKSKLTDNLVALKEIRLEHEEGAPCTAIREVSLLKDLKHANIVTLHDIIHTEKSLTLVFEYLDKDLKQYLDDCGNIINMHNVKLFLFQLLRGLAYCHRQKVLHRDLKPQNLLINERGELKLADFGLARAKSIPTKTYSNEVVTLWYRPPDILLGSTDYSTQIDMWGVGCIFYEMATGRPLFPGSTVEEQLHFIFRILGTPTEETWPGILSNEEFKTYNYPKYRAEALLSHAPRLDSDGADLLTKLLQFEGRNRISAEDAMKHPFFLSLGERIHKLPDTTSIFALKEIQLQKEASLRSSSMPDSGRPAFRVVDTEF
# Chain of Cyclin-dependent kinase 7 (Homo sapiens) (P50613 whole entry): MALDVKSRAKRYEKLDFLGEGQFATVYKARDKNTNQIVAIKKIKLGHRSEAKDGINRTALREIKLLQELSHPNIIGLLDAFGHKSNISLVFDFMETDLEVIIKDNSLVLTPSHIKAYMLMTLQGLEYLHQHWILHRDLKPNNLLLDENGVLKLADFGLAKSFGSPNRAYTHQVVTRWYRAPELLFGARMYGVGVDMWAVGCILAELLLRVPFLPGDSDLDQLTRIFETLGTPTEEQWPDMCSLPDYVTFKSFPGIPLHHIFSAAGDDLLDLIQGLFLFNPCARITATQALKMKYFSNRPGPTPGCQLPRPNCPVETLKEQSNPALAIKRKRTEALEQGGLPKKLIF
# Chain of Cyclin-dependent kinase 17 (Homo sapiens) (Q00537 whole entry, looked up): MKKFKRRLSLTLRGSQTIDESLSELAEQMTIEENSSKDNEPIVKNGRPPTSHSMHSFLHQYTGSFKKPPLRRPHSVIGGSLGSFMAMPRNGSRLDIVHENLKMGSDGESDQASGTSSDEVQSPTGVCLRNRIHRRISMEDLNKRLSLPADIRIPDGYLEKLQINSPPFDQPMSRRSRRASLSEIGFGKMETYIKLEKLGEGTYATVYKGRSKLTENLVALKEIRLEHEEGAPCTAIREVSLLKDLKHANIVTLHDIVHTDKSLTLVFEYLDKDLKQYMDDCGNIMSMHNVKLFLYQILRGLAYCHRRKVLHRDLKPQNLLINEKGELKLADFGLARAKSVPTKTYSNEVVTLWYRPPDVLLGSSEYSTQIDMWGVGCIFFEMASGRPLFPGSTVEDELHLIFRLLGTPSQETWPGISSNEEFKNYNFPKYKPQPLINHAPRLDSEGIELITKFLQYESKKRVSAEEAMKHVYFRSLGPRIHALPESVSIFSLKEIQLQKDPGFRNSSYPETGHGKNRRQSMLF
# Chain of Cyclin-dependent kinase 13 (Homo sapiens) (Q14004 whole entry, looked up): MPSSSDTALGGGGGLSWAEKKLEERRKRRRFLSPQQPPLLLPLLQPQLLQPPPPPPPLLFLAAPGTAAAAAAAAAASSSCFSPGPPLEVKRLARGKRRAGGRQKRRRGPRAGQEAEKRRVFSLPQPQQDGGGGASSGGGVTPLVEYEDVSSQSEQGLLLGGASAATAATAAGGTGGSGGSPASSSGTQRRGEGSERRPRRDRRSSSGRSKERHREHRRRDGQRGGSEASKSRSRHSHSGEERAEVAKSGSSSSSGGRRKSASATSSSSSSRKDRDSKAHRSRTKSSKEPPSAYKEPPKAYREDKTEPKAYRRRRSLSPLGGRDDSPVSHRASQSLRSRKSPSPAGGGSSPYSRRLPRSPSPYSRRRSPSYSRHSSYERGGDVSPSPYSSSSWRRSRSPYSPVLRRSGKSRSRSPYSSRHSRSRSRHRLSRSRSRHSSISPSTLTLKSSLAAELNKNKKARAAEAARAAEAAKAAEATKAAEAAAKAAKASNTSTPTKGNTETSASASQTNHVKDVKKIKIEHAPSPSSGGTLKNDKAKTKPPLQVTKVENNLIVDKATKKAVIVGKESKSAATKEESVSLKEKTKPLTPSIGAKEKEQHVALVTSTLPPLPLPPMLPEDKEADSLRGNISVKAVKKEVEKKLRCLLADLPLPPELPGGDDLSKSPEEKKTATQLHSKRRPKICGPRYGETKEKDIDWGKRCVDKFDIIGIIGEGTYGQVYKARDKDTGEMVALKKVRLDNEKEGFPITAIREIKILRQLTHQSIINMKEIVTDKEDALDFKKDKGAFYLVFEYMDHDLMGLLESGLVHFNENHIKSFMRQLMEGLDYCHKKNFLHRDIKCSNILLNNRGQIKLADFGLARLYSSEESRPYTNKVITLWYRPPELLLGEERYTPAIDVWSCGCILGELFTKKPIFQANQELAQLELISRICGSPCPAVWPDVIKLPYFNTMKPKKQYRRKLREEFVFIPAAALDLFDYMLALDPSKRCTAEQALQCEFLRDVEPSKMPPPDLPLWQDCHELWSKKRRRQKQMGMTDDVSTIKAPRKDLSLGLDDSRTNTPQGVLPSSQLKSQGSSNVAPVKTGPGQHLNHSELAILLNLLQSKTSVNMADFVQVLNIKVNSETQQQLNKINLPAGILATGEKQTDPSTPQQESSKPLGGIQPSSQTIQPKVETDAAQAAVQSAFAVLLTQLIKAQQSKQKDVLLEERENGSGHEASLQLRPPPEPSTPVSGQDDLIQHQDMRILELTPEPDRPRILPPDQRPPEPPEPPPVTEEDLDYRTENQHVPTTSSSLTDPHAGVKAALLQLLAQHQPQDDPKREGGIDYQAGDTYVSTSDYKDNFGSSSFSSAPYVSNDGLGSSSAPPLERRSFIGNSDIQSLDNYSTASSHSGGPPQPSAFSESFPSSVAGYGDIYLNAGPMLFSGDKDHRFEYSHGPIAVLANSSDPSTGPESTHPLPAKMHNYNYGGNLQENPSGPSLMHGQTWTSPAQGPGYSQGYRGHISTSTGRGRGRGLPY
smiles,measurement,setting,value
CP(C)(=O)c1c(C#N)ccc2c(-c3nc(N[C@@H]4CNC[C@@H](F)C4)nc4ccsc34)c[nH]c12,Activity,MDA-MB-453 [1],Dose-Dependent Effect
same,Activity,MDA-MB-231 [2],Dose-Dependent Effect
same,inhibition,MDA-MB-231 [3],Active
same,half-life,[4],1.9 h
same,half-life,[5],0.85 h
same,Activity,MDA-MB-231 [6],Dose-Dependent Effect
same,half-life,[7],2.11 h
same,Vd,[8],4.6 L/kg
same,Activity,MDA-MB-453 [9],Active
same,Activity,MDA-MB-453 [10],Dose-Dependent Effect
same,inhibition,[11],Active
same,clearance,[12],68.3 mL/min/kg
same,inhibition,[13],inactive
same,half-life,[14],1.2 h
same,Activity,MDA-MB-231 [15],Active
same,inhibition,[16],inactive
same,Activity,MDA-MB-231 [17],Dose-Dependent Effect
same,Activity,MDA-MB-231 [18],Active
same,inhibition,[19],inactive
same,Activity,MDA-MB-231 [20],Dose-Dependent Effect
same,Activity,MDA-MB-453 [21],Dose-Dependent Effect
same,EC50,MDA-MB-453 [22],150 nM
same,inhibition,[23],inactive
same,bioavailability,[24],22.3%
same,AUC(0-t) at 24 h,[25],230 ng·h/mL
same,Activity,MDA-MB-231 [26],Dose-Dependent Effect
